Measurements from patent US20180360037A1, “STEREOISOMER OF BROMADIOLONE, COMPOSITION AND RODENTICIDE BAIT COMPRISING SAME, AND METHOD FOR CONTROLLING TARGET RODENT PESTS” (priority 2015, published 2018).
Like-named read-outs stand apart in the source and are kept apart here.

How the values were obtained:
[1] = assay type: in vivo, rat; conditions: for concentration of each enantiomer in rat liver: mixture of diastereoisomers, about 13 mg/kg per os on D0, from D+3, FIG. 3
Experimental: Separation of the configurational stereoisomers of bromadiolone is performed by high-pressure liquid chromatography (HPLC) on a LUX® Cellulose-1 chiral column (Phenomenex, Le Pecq, France) containing a chiral stationary phase constituted of particles of cellulose tris(3,5-dimethylphenyl carbamate), said particles having a mean size of 3 μm and having a mean pore size of 1000 Å. A mixture formed from acetonitrile (A) and water comprising 0.1% by volume of formic acid (B), with an A/B volume ratio of 80/20 and with a flow rate of 0.25 mL/minute in the chromatography column, is used as mobile phase. The concentration of the composition to be analysed is 1 μg of bromadiolone per millilitre of acetonitrile and the volume injected onto the column is 1 μL. Detection is performed by tandem mass spectrometry (MS/MS) in negative electrospray ionization (ESI) mode. The temperature of the nebulizer gas is 350° C. and its flow rate is 8 L/minute. The pressure of the nebulizer gas is brought to 2700 hPa. In particular, the MRM (“Multiple Reaction Monitoring”) transitions m/z 525.1→250.1 and m/z 525.1→181, corresponding to the bromadiolone signal, are detected.
About 0.525 g (±0.025 g) of rat liver is weighed out accurately and placed in a 50 mL polypropylene tube. 10 mL of acetone are added and the suspension is homogenized using an Ultra-Turrax® homogenizer/disperser for a time of about 30 seconds. The homogenizer/disperser shaft is rinsed with hot water and then twice with 20 mL of acetone in a polypropylene tube. The homogenate is centrifuged for 5 minutes at a centrifugation speed of 3000 rpm (revolutions per minute). The supernatant is collected and transferred into a test tube. The sample is subjected to evaporation under a stream of nitrogen (N2) at a temperature of 40° C. so as to form a dry extract.
1 mL of acetonitrile is added to the tube containing the dry extract so as to dissolve it. The acetonitrile solution is washed twice successively with 1 mL of hexane. The lipid-free extract is dried under a stream of nitrogen (N2) at a temperature of 40° C. and is then taken up in 0.5 mL of methanol and dissolved by vortex stirring. 0.5 mL of ultra-pure (Milli-Q) water is then added. The sample is vortex-homogenized.
1 mL of dichloromethane (CH2Cl2), then 1 mL of methanol (CH3OH), then 1 mL of ultra-pure (Milli-Q) water are passed through an Oasis HLB 1 cc cartridge (WAT094225, Waters). The lipid-free liver extract (1 mL MeOH/Milli-Q H2O) containing bromadiolone is then loaded onto the top of the preconditioned cartridge. The liver extract penetrates through the cartridge by gravity on contact with the solid phase of the cartridge. 1 mL of washing solution formed from methanol (CH3OH) and ultra-pure water (H2O) in a 90/10 volume proportion is loaded onto the top of the cartridge. The cartridge is dried by suction under vacuum connected to the bottom of the cartridge. 1 mL of eluting solution formed from dichloromethane (CH2Cl2) and methanol (CH3OH) in a 90/10 volume proportion is then loaded onto the top of the cartridge and an eluate comprising bromadiolone is collected at the bottom of the cartridge. The solvent of the eluate is evaporated off under a stream of nitrogen (N2) at a temperature of 40° C. The sample is taken up in 0.5 mL of acetonitrile and the acetonitrile solution containing bromadiolone is filtered through a 0.2 μm filter. […]

[2] = test system: male laboratory rats (OFA, Sprague-Dawley 200 g); experiment: Anticoagulant power of each configurational stereoisomer of bromadiolone (coagulation time, Quick time, of plasma of tube-fed rats); assay type: in vivo, rat; conditions: for anticoagulant effect (coagulation time, Quick time): 1.5 mg of enantiomer per kg rat by tube feeding on D0, up to D3, FIG. 4
Experimental: The following are administered to male laboratory rats (OFA, Sprague-Dawley 200 g) by tube feeding on D0: a composition comprising enantiomer E1 of said diastereoisomer D12 in a proportion of 1.5 mg of said enantiomer E1 per kilogram of rat; or a composition comprising enantiomer E2 of said diastereoisomer D1,2 in a proportion of 1.5 mg of said enantiomer E2 per kilogram of rat; or a composition comprising enantiomer E3 of said diastereoisomer D3,4 in a proportion of 1.5 mg of said enantiomer E3 per kilogram of rat; or a composition comprising enantiomer E4 of said diastereoisomer D3,4 in a proportion of 1.5 mg of said enantiomer E4 per kilogram of rat.
The rats receive vitamin K1 daily in a proportion of 0.1 unit of vitamin per 200 g of rat so as to keep them alive for 7 days or 14 days. However, the administration of vitamin K1 is stopped 48 hours before the rats are euthanized so as to allow evaluation of the Quick time without interference with the supplementation by tube feeding.
On these rats, blood is collected on D1, D3, D7 and D14 and measurement of the coagulation time (Quick time, expressed in seconds) of the plasma is performed using the “Neoplastine CI Determination of Prothrombin Time” kit (Diagnostica Stago, Asnière, France) by measurement on a Thrombotimer Option 2 Plus machine (Behnk Electronik, Norderstedt, Germany).

[3] = summary statement of the inventors

In the case of O=c1oc2ccccc2c(O)c1C(CC(O)c1ccc(-c2ccc(Br)cc2)cc1)c1ccccc1 (single isomer, unassigned) [enantiomer E1, 3-[3-(4′-bromo[1,1′-biphenyl]-4-yl)-3-hydroxy-1-phenylpropyl]-4-hydroxy-2H-1-benzopyran-2-one], the “concentration of each enantiomer in rat liver” value (shortened to “concentration”) ([1]; listed as E1) is reported as “remains in the rat liver”.
With O=c1oc2ccccc2c(O)c1C(CC(O)c1ccc(-c2ccc(Br)cc2)cc1)c1ccccc1 (single isomer, unassigned) [enantiomer E2, 3-[3-(4′-bromo[1,1′-biphenyl]-4-yl)-3-hydroxy-1-phenylpropyl]-4-hydroxy-2H-1-benzopyran-2-one] the “concentration” value ([1]; listed as E2) was “only enantiomer E1 remains in the rat liver”.
In the case of O=c1oc2ccccc2c(O)c1C(CC(O)c1ccc(-c2ccc(Br)cc2)cc1)c1ccccc1 (single isomer, unassigned) [enantiomer E3, 3-[3-(4′-bromo[1,1′-biphenyl]-4-yl)-3-hydroxy-1-phenylpropyl]-4-hydroxy-2H-1-benzopyran-2-one], the “concentration” value ([1]; listed as E3) is reported as “only enantiomer E1 remains in the rat liver” and the “anticoagulant effect (coagulation time, Quick time)” value ([2]; listed as E3) is reported as “contrary to the ingestion of 1.5 mg of said enantiomer E3”.
For O=c1oc2ccccc2c(O)c1C(CC(O)c1ccc(-c2ccc(Br)cc2)cc1)c1ccccc1 (single isomer, unassigned) [enantiomer E4, 3-[3-(4′-bromo[1,1′-biphenyl]-4-yl)-3-hydroxy-1-phenylpropyl]-4-hydroxy-2H-1-benzopyran-2-one], the “concentration” value ([1]; listed as E4) was “only enantiomer E1 remains in the rat liver”, the “persistence in the liver of target rodent pests” value [1, 3] was “sufficient to be rodenticidal” and the “anticoagulant effect (coagulation time, Quick time)” value ([2]; listed as E4) was “sufficient to maintain an anticoagulant effect at least up to D3”. The “anticoagulant activity compared with enantiomer E3” value [2, 3] was “higher anticoagulant activity than the anticoagulant activity of said enantiomer E3”.
